# Measured values published in patent US20230053119A1, “FUSION POLYPEPTIDE COMPRISING Fc REGION OF IMMUNOGLOBULIN AND GDF15” (LG CHEM, LTD., priority 2019, published 2023).
# Tests used:
# Format in all cases: in vivo
# [1] = tested on: DIO mouse model (C57BL/6J-DIO); test: Weight change in DIO mice after HIgG1-GDF(CRL) / IgG1-GDF(CRL) administration; conditions: for Body Weight, Mean: 2.86 nmol/kg s.c. Daily Inj. for 5 days
# Description: (§1) The pharmacological effect of the fusion polypeptide produced and purified in Example 1 was tested in mice (C57BL/6J, 6 weeks, male, 100 mice; RaonBio).
# (§2) All the control material and test materials were administered subcutaneously. The administration route of the control material and test materials was selected as a subcutaneous route depending on the clinical intended route of administration.
# The dose of all the control material and test materials was 5 mL/kg, and the dose by individual was calculated on the basis of the recently measured weight, […] (1 mL). […] For comparison, the control group in which the control material GDF15 was prepared, and for the comparison group in which GDF15 was administered, they were administered once a day for 5 days, 5 times in total, and all administrations were progressed from 9 AM.
# The weight of each mouse was measured at the day of the start of administration of the test materials (before administration), and then the weight was measured every day (measured by 9 days at maximum). The dose of the test materials was determined on the basis of the most recently measured weight.
# [2] = tested on: DIO mouse model (C57BL/6J-DIO); test: Feed intake in DIO mice after HIgG1-GDF(CRL) / IgG1-GDF(CRL) administration; conditions: 2.86 nmol/kg s.c. Daily Inj. for 5 days
# Description: as §1, §2
# The dose of all the control material and test materials was 5 mL/kg, and the dose by individual was calculated on the basis of the recently measured weight, and they were administered subcutaneously once at the test start day using a disposable syringe (1 mL). […] For comparison, the control group in which the control material GDF15 was prepared, and for the comparison group in which GDF15 was administered, they were administered once a day for 5 days, 5 times in total, and all administrations were progressed from 9 AM.
# (§3) In addition, after administering the test materials to mice, the feed intake was measured every day, and the amount of feeding was measured using an electronic scale by each breeding box, and then the residual amount was measured to calculate the feed intake a day. Individuals who severely ate the feed were excluded from the measurement.
# [3] = Pharmacodynamic (PK) test in SD rat, serum concentration by Human GDF15 ELISA; conditions: 2 mg/kg subcutaneous
# Description: For evaluation of pharmacodynamic characteristics when each polypeptide was subcutaneously administered to rats, polypeptide IgG4-GDF or IgG4-GDF(CRL) was subcutaneously administered in an amount of 2 mg/kg, respectively, to SD Rat (Koatech, male, 7 weeks, about 250g; n=3 each; test group), and at a fixed time, blood was collected about […] through a caudal vein. Blood collecting was progressed before administration of the fusion polypeptide, in 1, 2, 4, 8, 24, 48, 72, 96, 168, 240 and 336 hours after administration. As a control group for comparison of pharmacodynamic characteristics, GDF15 (R&D Systems) was subcutaneously administered in an amount of 2 mg/kg by the same method as above to prepare GDF15 administration group.
# After administering to SD Rat as above, blood collected by time-point was centrifuged to obtain serum, and ELISA was performed using Human GDF15 Immunoassay (SGD150, R&D Systems), to measure the concentration in serum over time for each polypeptide.
# [4] = tested on: DIO mouse model (C57BL/6J-DIO); test: Feed intake in DIO mice after IgG4-GDF / IgG4-GDF(CRL) administration; conditions: 3 nmol/kg s.c. Daily Inj.
# Description: as §1
# (§4) Semaglutide (Bachem) were subcutaneously administered. The dose of all the control material and test materials was 5 mL/kg, and the dose by individual was calculated on the basis of the recently measured weight, […] (1 mL). […] For a comparison group in which Semaglutide was administered, Semaglutide were administered every day once a day. All administrations were progressed from 9 AM.
# as §3
# [5] = tested on: DIO mouse model (C57BL/6J-DIO); test: Weight change in DIO mice after IgG4-GDF / IgG4-GDF(CRL) administration; conditions: for Body Weight, Mean: 3 nmol/kg s.c. Daily Inj.
# Description: as §1
# The test materials (IgG4-GDF ? GDF IgG4-GDF(CRL)) and control material
# as §4
# The weight of each mouse was measured at the day of the start of administration of the test materials (before administration), and then the weight was measured every day (measured by 19 days at maximum). The dose of the test materials was determined on the basis of the most recently measured weight.
substance,measurement,setting,value
"GDF15: control material GDF15 (R&D Systems), Growth/differentiation factor 15 not fused with Fc","Body Weight, Mean",[1]; Day 0,100 % of initial
same,"Body Weight, Mean",[1]; Day 1,99 % of initial
same,"Body Weight, Mean",[1]; Day 2,98 % of initial
same,"Body Weight, Mean",[1]; Day 3,97 % of initial
same,"Body Weight, Mean",[1]; Day 4,96 % of initial
same,"Body Weight, Mean",[1]; Day 5,95 % of initial
same,"Body Weight, Mean",[1]; Day 6,95 % of initial
same,"Body Weight, Mean",[1]; Day 7,95 % of initial
same,"Body Weight, Mean",[1]; Day 8,96 % of initial
same,"Body Weight, Mean",[1]; Day 9,97 % of initial
same,weight loss effect (in words),"[1]; daily administration, stopping administration from Day 5",weight loss effect disappeared from Day 6
same,"Feed intake a day, Mean",[2]; Day 0,2.8
same,"Feed intake a day, Mean",[2]; Day 1,2.4
same,"Feed intake a day, Mean",[2]; Day 2,2.7
same,"Feed intake a day, Mean",[2]; Day 3,2.4
same,"Feed intake a day, Mean",[2]; Day 4,2.5
same,"Feed intake a day, Mean",[2]; Day 5,2.6
same,"Feed intake a day, Mean",[2]; Day 6,2.7
same,"Feed intake a day, Mean",[2]; Day 7,3.0
same,"Feed intake a day, Mean",[2]; Day 8,3.3
same,"Feed intake a day, Mean",[2]; Day 9,3.5
same,AUCextp,[3]; [(AUCinf − AUClast)/AUCinf]*100,0.463%
same,AUClast,[3]; serum,4860 ng·h/mL
same,Cmax (maximum blood concentration),[3]; serum,443 ng/mL
same,Tmax (time to reach maximum blood concentration),[3]; serum,1 h
same,half-life,[3]; serum,19 h
same,t1/2 (elimination half-life),[3]; serum,19.0 h
same,AUCinf,"[3]; serum, extrapolated to infinite time",4880 ng·h/mL
Semaglutide [reference compound],"Feed intake a day, Mean",[4]; Day 0,3.7
same,"Feed intake a day, Mean",[4]; Day 1,2.1
same,"Feed intake a day, Mean",[4]; Day 2,3.3
same,"Feed intake a day, Mean",[4]; Day 3,2.8
same,"Feed intake a day, Mean",[4]; Day 4,2.3
same,"Feed intake a day, Mean",[4]; Day 5,2.9
same,"Feed intake a day, Mean",[4]; Day 6,2.7
same,"Feed intake a day, Mean",[4]; Day 7,3.2
same,"Feed intake a day, Mean",[4]; Day 8,2.4
same,"Feed intake a day, Mean",[4]; Day 9,3.7
same,"Feed intake a day, Mean",[4]; Day 10,2.7
same,"Feed intake a day, Mean",[4]; Day 11,2.5
same,"Feed intake a day, Mean",[4]; Day 12,2.4
same,"Feed intake a day, Mean",[4]; Day 13,3.0
same,"Feed intake a day, Mean",[4]; Day 14,2.5
same,"Feed intake a day, Mean",[4]; Day 15,2.1
same,"Feed intake a day, Mean",[4]; Day 16,2.5
same,"Feed intake a day, Mean",[4]; Day 17,2.0
same,"Feed intake a day, Mean",[4]; Day 18,2.2
same,"Feed intake a day, Mean",[4]; Day 19,3.7
same,"Body Weight, Mean",[5]; Day 0,100 % of initial
same,"Body Weight, Mean",[5]; Day 1,94 % of initial
same,"Body Weight, Mean",[5]; Day 2,91 % of initial
same,"Body Weight, Mean",[5]; Day 3,90 % of initial
same,"Body Weight, Mean",[5]; Day 4,87 % of initial
same,"Body Weight, Mean",[5]; Day 5,87 % of initial
same,"Body Weight, Mean",[5]; Day 6,85 % of initial
same,"Body Weight, Mean",[5]; Day 7,86 % of initial
same,"Body Weight, Mean",[5]; Day 8,83 % of initial
same,"Body Weight, Mean",[5]; Day 9,85 % of initial
same,"Body Weight, Mean",[5]; Day 10,84 % of initial
same,"Body Weight, Mean",[5]; Day 11,82 % of initial
same,"Body Weight, Mean",[5]; Day 12,81 % of initial
same,"Body Weight, Mean",[5]; Day 13,82 % of initial
same,"Body Weight, Mean",[5]; Day 14,81 % of initial
same,"Body Weight, Mean",[5]; Day 15,79 % of initial
same,"Body Weight, Mean",[5]; Day 16,79 % of initial
same,"Body Weight, Mean",[5]; Day 17,78 % of initial
same,"Body Weight, Mean",[5]; Day 18,77 % of initial
same,"Body Weight, Mean",[5]; Day 19,77 % of initial
same,weight loss (in words),[5]; daily administration,weight loss was consistent
